Experimental data from patent US9950091B2, “Composition and method for stopping hemorrhage, infection, and accelerating healing in various types of wound or burns” (priority 2015, dated 2018).

System: human blood (platelet/fibrin clot)
Assay: Thrombelastography (TEG) clot kinetics in whole blood
Type: cell-based
Settings: Table 4, mean ± SD, n=4, control = normal blood, 'Heparin +' lines in presence of heparin
Text: Thrombelastography techniques, which are commonly used in the clinical laboratory for monitoring coagulation functions, were utilized. Siliconized Vacutainer tubes (Becton Dickinson, Rutherford, N.J.) were used to collect whole blood. To maintain a ratio of citrate to whole blood of 1:9 (v/v), the tubes contained 3.2% trisodium citrate. Blood samples were placed on a slow speed rocker until TEG analysis.
Whole Blood Coagulation Analyzer, Model 5000 Thrombelastograph, Hemoscope Corporation, Skokie, Ill., was used. TEG is based on the measurement of the physical viscoelastic characteristics of blood clots. An oscillating plastic cylindrical cuvette (“cup”) and a coaxially suspended stationary piston (“pin”) with a […] clearance between the surfaces are used to monitor clot formation at 37° C. Every 4.5 seconds, with a 1-second mid cycle stationary period, the cup oscillates in either direction, resulting in a frequency of 0.1 Hz. […]
Different hydrogel polycatioinic matrix micro-composites were evaluated. […]
A standard global coagulation assay, namely Thrombelastography, uses a total of 5 ml blood from human volunteers. Additionally, the efficiency of the optimal hydrogel compositions that have the shortest Time to Clotting (R) and the strongest clot strength (MA) were evaluated in stopping severe bleeding in a hemorrhage simulation model system. […]

NC[C@H]1CC[C@H](C(=O)O)CC1 [tranexamic acid (TXA), tranexamic acid]
MA-Clot Strength: 57 ± 4 mm
R - Time to Clot initiation: 9.0 ± 4 min
